Measurements reported in patent US7390806B2, “Antibiotics containing borinic acid complexes and methods of use” (Anacor Pharmaceuticals, Inc., priority 2002, dated 2008).
In brackets after ≈: the same amount, converted by molar mass.

What was measured:
[1] = system: Candida albicans ATCC 90028; assay: Antifungal in vitro MIC, Candida albicans; assay type: cell-based; conditions: for MIC Candida albicans ATCC 90028: percent inhibition >= 80%
[2] = system: Aspergillus fumigatus ATCC 204305; assay: Antifungal in vitro MIC, Aspergillus fumigatus; assay type: cell-based; conditions: for MIC Aspergillus fumigatus ATCC 204305: percent inhibition >= 80%
[3] = system: Candida glabrata ATCC 15126; assay: Antifungal in vitro MIC, Candida glabrata; assay type: cell-based; conditions: for MIC Candida glabrata ATCC 15126: percent inhibition >= 80%
[4] = system: Microsporum canis ATCC 10214; assay: Antifungal in vitro MIC, Microsporum canis; assay type: cell-based; conditions: for MIC Microsporum canis ATCC 10214: percent inhibition >= 80%
[5] = system: Trichophyton mentagrophytes ATCC 10270; assay: Antifungal in vitro MIC, Trichophyton mentagrophytes; assay type: cell-based; conditions: for MIC Trichophyton mentagrophytes ATCC 10270: percent inhibition >= 80%
[6] = system: Candida parapsilosis ATCC 22019; assay: Antifungal in vitro MIC, Candida parapsilosis; assay type: cell-based; conditions: for MIC Candida parapsilosis ATCC 22019: percent inhibition >= 80%
[7] = system: S. aureus ATCC 29213; assay: MIC determination, S. aureus ATCC 29213; assay type: cell-based, Staphylococcus aureus; conditions: Table 1
[8] = system: S. epidermidis ATCC 12228; assay: MIC determination, S. epidermidis ATCC 12228; assay type: cell-based, Staphylococcus epidermidis; conditions: Table 1
[9] = system: E. faecium CT-26; assay: MIC determination, E. faecium CT-26; assay type: cell-based, Enterococcus faecium; conditions: Table 1
[10] = system: M. catarrhalis ATCC 25238; assay: MIC determination, M. catarrhalis ATCC 25238; assay type: cell-based; conditions: Table 1
[11] = system: M. tuberculosis H37Rv; assay: Anti-mycobacterium in vitro activity, H37Rv; assay type: cell-based, Mycobacterium tuberculosis; conditions: Sensitive strain
[12] = system: E. faecalis ATCC 29212; assay: MIC determination, E. faecalis ATCC 29212; assay type: cell-based, Enterococcus faecalis; conditions: Table 1

Row | Structure (SMILES) | MIC Candida albicans ATCC 90028 [1] [µg/mL] | MIC Aspergillus fumigatus ATCC 204305 [2] [µg/mL] | MIC Candida glabrata ATCC 15126 [3] [µg/mL] | MIC Microsporum canis ATCC 10214 [4] [µg/mL] | MIC Trichophyton mentagrophytes ATCC 10270 [5] [µg/mL] | MIC Candida parapsilosis ATCC 22019 [6] [µg/mL] | MIC ([1]; Candida albicans, ATCC90028, read-out: MIC Candida albicans ATCC 90028) [µg/mL] | MIC S. aureus ATCC 29213 [7] [micrograms per ml] | MIC S. epidermidis ATCC 12228 [8] [micrograms per ml] | MIC ([2]; Aspergillus fumigatus, ATCC204305, read-out: MIC Aspergillus fumigatus ATCC 204305) [µg/mL] | MIC ([3]; Nakaseomyces glabratus, ATCC15126, read-out: MIC Candida glabrata ATCC 15126) [µg/mL] | MIC E. faecium CT-26 [9] [micrograms per ml] | MIC M. catarrhalis ATCC 25238 [10] [micrograms per ml] | MIC ([4]; Microsporum canis, ATCC10214, read-out: MIC Microsporum canis ATCC 10214) [µg/mL] | M. tuberculosis MIC H37Rv [11] [µg/mL] | MIC ([5]; Trichophyton mentagrophytes, ATCC10270, read-out: MIC Trichophyton mentagrophytes ATCC 10270) [µg/mL] | MIC ([6]; Lodderomyces parapsilosis, ATCC22019, read-out: MIC Candida parapsilosis ATCC 22019) [µg/mL] | MIC E. faecalis ATCC 29212 [12] [micrograms per ml]
1 | Cc1ccc(B(OCc2nccn2C)c2ccc(C)c(Cl)c2)cc1Cl [Compound 128, Bis(3-Chloro-4-methylphenyl)borinic acid 1-methyl-2-(hydroxymethyl)-imidazole ester] | 1 (≈ 2.68 µM) | >32 | 32 (≈ 85.8 µM) | 12 (≈ 32.2 µM) | 16 (≈ 42.9 µM) | 16 (≈ 42.9 µM) | – | – | – | – | – | – | – | – | – | – | – | –
2 | CCn1ccnc1COB(c1ccc(C)c(Cl)c1)c1ccc(C)c(Cl)c1 [Compound 129, Bis(3-Chloro-4-methylphenyl)borinic acid 1-ethyl-2-(hydroxymethyl)-imidazole ester] | 1 (≈ 2.58 µM) | >32 | >32 | 16 (≈ 41.3 µM) | 32 (≈ 82.7 µM) | 32 (≈ 82.7 µM) | – | – | – | – | – | – | – | – | – | – | – | –
3 | Cc1ccc(B(OCc2cn(Cc3ccccc3)cn2)c2ccc(C)c(Cl)c2)cc1Cl [Compound 127, Bis(3-Chloro-4-methylphenyl)borinic acid 1-benzyl-4-(hydroxymethyl)-imidazole ester] | 1 (≈ 2.23 µM) | >32 | >32 | 16 (≈ 35.6 µM) | 32 (≈ 71.2 µM) | 16 (≈ 35.6 µM) | – | – | – | – | – | – | – | – | – | – | – | –
4 | C[C@@H]1[C@H](O)[C@@H](C)/C=C/C=C/C=C/C=C/C=C/C=C/C=C/[C@H](O[C@@H]2O[C@H](C)[C@@H](O)[C@H](N)[C@@H]2O)C[C@@H]2O[C@](O)(C[C@@H](O)C[C@@H](O)[C@H](O)CC[C@@H](O)C[C@@H](O)CC(=O)O[C@H]1C)C[C@H](O)[C@H]2C(=O)O [Amphotericin B, reference compound] | 1 (≈ 1.08 µM) | 1 (≈ 1.08 µM) | 0.75 (≈ 0.812 µM) | 0.5 (≈ 0.541 µM) | 1 (≈ 1.08 µM) | 0.75 (≈ 0.812 µM) | – | – | – | – | – | – | – | – | – | – | – | –
5 | Cc1ccc(B(OCCc2ccccn2)c2ccc(C)c(Cl)c2)cc1Cl [Compound 131, Bis(3-Chloro-4-methylphenyl)borinic acid 2-pyridylethanol] | 2 (≈ 5.21 µM) | >32 | >32 | 32 (≈ 83.3 µM) | 32 (≈ 83.3 µM) | >32 | – | – | – | – | – | – | – | – | – | – | – | –
6 | Clc1ccc(B(OCc2cnc[nH]2)c2ccc(Cl)cc2)cc1 [Compound 126, Bis(4-Chlorophenyl)borinic acid 4-(hydroxymethyl)imidazole ester] | 1 (≈ 3.02 µM) | >32 | >32 | 16 (≈ 48.3 µM) | >32 | 32 (≈ 96.7 µM) | – | – | – | – | – | – | – | – | – | – | – | –
7 | Cc1ccc(B(OCc2cn(C)cn2)c2ccc(C)c(Cl)c2)cc1Cl [Compound 130, Bis(3-Chloro-4-methylphenyl)borinic acid 1-methyl-4-(hydroxymethyl)-imidazole ester] | 1 (≈ 2.68 µM) | 0.5 (≈ 1.34 µM) | 0.5 (≈ 1.34 µM) | 0.5 (≈ 1.34 µM) | 0.5 (≈ 1.34 µM) | 0.5 (≈ 1.34 µM) | – | – | – | – | – | – | – | – | – | – | – | –
8 | Oc1cccc2cccnc12 [Compound 53, 8-hydroxyquinoline] | – | – | – | – | – | – | 1 (≈ 6.89 µM) | 2 | 2 | > 32 | > 32 | 4 | 2 | 16 (≈ 110 µM) | 0.775 | > 32 | 32 (≈ 220 µM) | 64
